{"source": "patent US8618075B2", "about": "“Certain compounds, compositions and methods” (Eisai Inc., priority 2007, dated 2013)", "key": {"[1]": {"test": "Stability in acid solution by 1H NMR spectroscopy", "assay_type": "physicochemical", "details": "D2O + one drop deuterated TFA, 27° C.", "method": "Tetrahydrouridine (THU, 5 mg) is dissolved in D2O (0.75 mL). To this same sample is added one drop of deuterated TFA followed by an immediate ^1HNMR spectrum (FIG. 10). Even at this earliest time point, the peak at 5.4 ppm (˜10% conversion by integration) is indicative of the ring expansion to the TH-pyranose. After 4 hours, the TH-pyranose is more prevalent indicating about 60% conversion. At 72 hours, the conversion is almost entirely complete (>80%).\nTo this same sample is added one drop of deuterated TFA followed by an immediate ^1HNMR spectrum (FIG. 12). After the first time point, the only notable change is the epimerization of the aminal which is noted by the extra peaks at 5.92 and 5.93. After 4 hours and 72 hours (FIG. 13), there are no other notable changes in the spectra (D2O, 300 MHz, 27° C.)."}, "[2]": {"test_system": "L1210 mouse lymphoma model", "test": "Decitabine induced survival in the L1210 survival model", "assay_type": "in vivo", "details": "for Mean Liver wts. (g) ± SD / Mean Spleen wts. (g) ± SD: on autopsy; for % ILS (Increased Life Span): vs vehicle group; for Survival compared to vehicle control and CDA inhibitor alone: p<0.05", "method": "30 CD2F1 6-7 weeks old female mice are randomly separated into 6 groups:\nL1210 Intravenous (Lv.) Injection: Prior to experiment, L1210 cells are passed at least 3 times in CD2F1 female mice. The mice are injected intraperitoneally (i.p.) with L1210 ascites one prior week to sacrifice using CO2. Each mouse is placed on its back, its belly surface is cleaned with alcohol wipes and a small incision is made into its peritoneal cavity. 2 ml of ice cold 2.1% bovine serum albumin (BSA) in saline is injected into the cavity. Fluid is withdrawn from the cavity, transferred with an 18G 3 cc syringe into a clean sterile tube, and kept on ice. The fluid is diluted 1:10 in 2.1% BSA in saline and one drop of zap-o-globin is added to 2 ml of diluted ascites. Diluted ascites (dilute 1:10 again) are counted on a hematocytomer and the number of cells/ml is calculated. A stock of ascites in BSA solution is diluted to 1×10^4 cells/0.1 ml. Mice are injected with 0.1 ml of cell solution with a 27G needle.\nDecitabine is prepared at a 1 mg/ml stock in PBS and diluted appropriately to achieve a 0.01 and 0.02 mg/ml dosing solution.\nDosing Scheme: Decitabine is prepared fresh twice a day. All dose solutions are stored on ice while dosing. Mice are dosed i.p. or orally (p.o.) twice a day (8 hours apart) for 4 consecutive days.\nSurvival and Autopsy: Mice are observed for survival and weighed daily (Monday to Friday) for the duration of the study (30 days). Dead mice are autopsied and observed for the presence of tumors in organs. Tumor deaths are determined by liver weights greater than 1.6 g and spleen weights greater than 150 mg as per Covey et al., Eur. J. Cancer Oncol. 1985."}, "[3]": {"test_system": "A2780 human ovarian cancer xenograft", "test": "Gemcitabine-induced reduction of tumor volume in the mouse A2780 human ovarian cancer xenograft model", "assay_type": "in vivo", "method": "Female NCr nu/nu 5-6 week old mice are implanted subcutaneously with 30 to 60 mg tumor fragments. On day 11 when the tumors are approximately 200 mm^3, treatment starts as described in Table 5.\nTumor volume is followed throughout the experiment. Tumor volume is measured three times weekly. Tumor burden (mg=mm^3) is calculated from caliper measurements by the formula for the volume of a prolate ellipsoid (L×W^2)/2 where L and W are the respective orthogonal length and width measurements (mm).\nThe primary endpoints used to evaluate efficacy in the A2780 model are complete and partial tumor regressions, tumor growth delay and the number of tumor free survivors at the end of the study. A complete response (CR) is defined as a decrease in tumor size to an undetectable size (<50mm^3). A partial response (PR) is defined as >50% decrease in tumor mass form starting tumor size. A tumor that achieves a CR or PR during the study but starts to grow again is still considered a CR or PR. Tumor free survival (TFS) at the end of the study would be no detectable tumor (<50 mm^3) at study termination (day 74). Tumor growth delay (TGD) is defined in this experiment as the median number of days for the treatment group compared to the control group to reach 750 mm^3."}, "[4]": {"details": "Group 2: Compound 1 10 mg/kg p.o. alone"}, "[5]": {"details": "Group 2: Compound 1 10 mg/kg p.o. x2 for 4 days alone"}, "[6]": {"details": "Group 4: Compound 1 1 mg/kg + 0.1 mg/kg decitabine p.o."}, "[7]": {"details": "Group 5: Compound 1 10 mg/kg + 0.1 mg/kg decitabine p.o."}, "[8]": {"details": "30 mg/kg Gemcitabine PO + Compound 1 10 mg/kg PO q3dx4"}, "[9]": {"details": "CDA inhibitor plus decitabine 0.1 mg/kg"}, "[10]": {"details": "10 mg/kg Gemcitabine PO q3dx4 alone"}, "[11]": {"details": "30 mg/kg Gemcitabine PO q3dx4 alone"}, "[12]": {"details": "Group 3: 0.1 mg/kg decitabine p.o. alone"}}, "data": [{"smiles": "O=C1NC(O)CCN1[C@@H]1O[C@H](CO)[C@@H](O)[C@H]1O", "note": "(some centres unmarked) [THU, Tetrahydrouridine]", "values": [{"measurement": "Conversion to TH-pyranose", "setting": "[1]; after 4 hours", "value": "about 60%"}, {"measurement": "Conversion to TH-pyranose", "setting": "[1]; at 72 hours", "value": "> 80", "unit": "%"}, {"measurement": "Conversion to TH-pyranose (by integration)", "setting": "[1]; immediate spectrum", "value": "~10", "unit": "%"}]}, {"smiles": "O=C1NC(O)CCN1C1O[C@H](CO)[C@@H](O)C1(F)F", "note": "(some centres unmarked) [Compound 1, 2′2′-DiFluoro-TetraHydroUridine]", "values": [{"measurement": "Mean Liver wts. (g) ± SD", "setting": "[2]; [4]", "value": "1.99 ± 0.22", "unit": "g"}, {"measurement": "Mean Spleen wts. (g) ± SD", "setting": "[2]; [4]", "value": "0.39 ± 0.07", "unit": "g"}, {"measurement": "Mean Survival (days) ± SD", "setting": "[2]; [5]", "value": "7.40 ± 0.55", "unit": "days"}, {"measurement": "% ILS (Increased Life Span)", "setting": "[2]; [5]", "value": 0.00, "unit": "%"}, {"measurement": "Mean Survival (days) ± SD", "setting": "[2]; Group 4: Compound 1 1 mg/kg + 0.1 mg/kg decitabine p.o. x2 for 4 days", "value": "12.8 ± 0.45", "unit": "days"}, {"measurement": "Mean Liver wts. (g) ± SD", "setting": "[2]; [6]", "value": "2.03 ± 0.08", "unit": "g"}, {"measurement": "Mean Spleen wts. (g) ± SD", "setting": "[2]; [6]", "value": "0.29 ± 0.03", "unit": "g"}, {"measurement": "% ILS (Increased Life Span)", "setting": "[2]; [6]", "value": 72.97, "unit": "%"}, {"measurement": "Mean Survival (days) ± SD", "setting": "[2]; Group 5: Compound 1 10 mg/kg + 0.1 mg/kg decitabine p.o. x2 for 4 days", "value": "14.2 ± 0.45", "unit": "days"}, {"measurement": "Mean Liver wts. (g) ± SD", "setting": "[2]; [7]", "value": "2.02 ± 0.27", "unit": "g"}, {"measurement": "Mean Spleen wts. (g) ± SD", "setting": "[2]; [7]", "value": "0.29 ± 0.07", "unit": "g"}, {"measurement": "% ILS (Increased Life Span)", "setting": "[2]; [7]", "value": 91.89, "unit": "%"}, {"measurement": "TGD (tumor growth delay)", "setting": "[3]; 10 mg/kg Compound 1 PO q3dx4 alone, median days to reach 750 mm^3 vs control", "value": 0.4, "unit": "days"}, {"measurement": "Tumors displaying CR", "setting": "[3]; 10 mg/kg Gemcitabine PO + Compound 1 10 mg/kg PO q3dx4", "value": 75, "unit": "%"}, {"measurement": "TGD (tumor growth delay)", "setting": "[3]; 10 mg/kg Gemcitabine PO + Compound 1 10 mg/kg PO q3dx4, p<0.05 vs 10 mg/kg Gem alone", "value": 19.2, "unit": "days"}, {"measurement": "CR", "setting": "[3]; [8]", "value": 100, "unit": "%"}, {"measurement": "Incidence of TFS at day 74", "setting": "[3]; [8]", "value": 50, "unit": "%"}, {"measurement": "TGD (tumor growth delay)", "setting": "[3]; 30 mg/kg Gemcitabine PO + Compound 1 10 mg/kg PO q3dx4, p<0.05 vs 30 mg/kg Gem alone", "value": ">57", "unit": "days"}]}, {"smiles": "O=C1N[C@H](O)CCN1C1O[C@H](CO)[C@@H](O)C1(F)F", "note": "(single isomer, unassigned) [Compound 1a, 2′2′-DiFluoro-TetraHydroUridine]", "values": [{"measurement": "Extending survival compared to the lower doses", "setting": "[2]; 10 mg/kg Compound 1a in combination with DAC", "value": "more effective"}, {"measurement": "Survival compared to vehicle control and CDA inhibitor alone", "setting": "[2]; [9]", "value": "live longer"}, {"measurement": "Pyranose formation in acid", "setting": "[1]; up to 72 hours, only epimerization of the aminal noted", "value": "no pyranose formation occurs"}]}, {"smiles": "Nc1ccn([C@@H]2O[C@H](CO)[C@@H](O)C2(F)F)c(=O)n1", "note": "[Gemcitabine, reference compound]", "values": [{"measurement": "Complete responses (CR)", "setting": "[3]; [10]", "value": "no CRs"}, {"measurement": "Partial responses (PR)", "setting": "[3]; [10]", "value": "no"}, {"measurement": "Tumor free survivors (TFS) at day 74", "setting": "[3]; [10]", "value": "no"}, {"measurement": "TGD (tumor growth delay)", "setting": "[3]; 10 mg/kg Gemcitabine PO q3dx4 alone, not statistically significant", "value": 6.1, "unit": "days"}, {"measurement": "TGD (tumor growth delay)", "setting": "[3]; 30 mg/kg Gemcitabine PO q3dx4 (MTD) alone, p<0.05 vs untreated control", "value": 22, "unit": "days"}, {"measurement": "CRs", "setting": "[3]; [11]", "value": 63, "unit": "%"}, {"measurement": "Tumor free survivors (TFS) at day 74", "setting": "[3]; [11]", "value": "no TFS"}]}, {"smiles": "Nc1ncn([C@H]2C[C@H](O)[C@@H](CO)O2)c(=O)n1", "note": "[Decitabine, 5-Aza-2′-deoxycytidine, reference compound]", "values": [{"measurement": "Mean Liver wts. (g) ± SD", "setting": "[2]; [12]", "value": "2.05 ± 0.17", "unit": "g"}, {"measurement": "Mean Spleen wts. (g) ± SD", "setting": "[2]; [12]", "value": "0.33 ± 0.06", "unit": "g"}, {"measurement": "% ILS (Increased Life Span)", "setting": "[2]; [12]", "value": 43.24, "unit": "%"}, {"measurement": "Mean Survival (days) ± SD", "setting": "[2]; Group 3: 0.1 mg/kg decitabine p.o. x2 for 4 days alone", "value": "10.6 ± 0.56", "unit": "days"}, {"measurement": "Survival compared to vehicle control and CDA inhibitor alone", "setting": "[2]; decitabine 0.1 mg/kg alone", "value": "live longer"}, {"measurement": "Efficacy (survival) compared to 0.1 mg/kg decitabine i.p.", "setting": "[2]; decitabine 0.1 mg/kg p.o., not significantly different, p=0.052", "value": "less effective"}]}, {"smiles": "O=C1N[C@H](O)CCN1C1O[C@H](CO)[C@@H](O)[C@H]1F", "note": "(stereo partly drawn) [Compound 3a, 2′(S)-fluoro-2′deoxy-tetrahydrouridine]", "values": [{"measurement": "Survival compared to vehicle control and CDA inhibitor alone", "setting": "[2]; [9]", "value": "live longer"}]}]}
